# Data: patent US20210275575A1, “COMPOSITION FOR IMPROVING RENAL FUNCTION IN RENAL DISEASES CONTAINING MOLECULAR HYDROGEN” (MiZ Company Limited, priority 2020, published 2021)
# Where two headings read alike, the source gives them in different places.
# Assays:
# [1] = system: patient with renal failure
# Protocol: A person developed renal failure from diabetes and has been on dialysis since 2006.
# Therefore, they started hydrogen gas inhalation in September 2019. Specifically, they did inhalations 3 to 4 hours per day using a hydrogen generator (model used: Jobs-a manufactured by MiZ Company Limited (hydrogen concentration: about 5%, other gas: air), amount of hydrogen gas generated: 200 ml/min).
# [2] = system: human patient with chronic nephritis
# [3] = approximately three years after first visit (about 2 years of inhalation)
# [4] = approximately two and a half years after first visit
# [5] = approximately two and a half years after first visit, 6 to 7.5% hydrogen inhaled 2 to 3 hours per day
smiles,measurement,setting,value
[HH] [molecular hydrogen],feelings of heaviness after dialysis,[1]; 1 month after starting hydrogen inhalation,their body felt lighter
same,edema after dialysis,"[1]; 1 month after starting hydrogen inhalation, about 5% hydrogen in air, 3 to 4 hours per day",the edema decreased
same,walking ability,"[1]; 10 days after starting hydrogen inhalation, about 5% hydrogen in air, 3 to 4 hours per day",became able to walk
same,urinary protein (protein amount per day),"[2]; about 2 years of inhalation, when the excreted urine volume is 1.5 L per day, normal levels: less than 0.2 g/day",about 0.1 g/day
same,urinary protein determination,[2]; approximately three years after first visit (about 2 years after the start of molecular hydrogen inhalation),6.6 mg/dL
same,HbA1c,[2]; [3],6.5%
same,blood sugar level,[2]; [3],139 mg/dL
same,glyco-albumin,[2]; [3],17.3%
same,need for dialysis (doctor's judgement),[2]; [3],dialysis was not required
same,renal function and diabetic symptoms (assessment in words),[2]; [3],improvement in renal function and diabetic symptoms was observed
same,serum creatinine,[2]; [3],0.86 mg/dL
same,urea nitrogen (BUN),[2]; [3],21.5 mg/dL
same,urinary creatinine,[2]; [3],27.3 mg/dL
same,eGFR,"[2]; approximately three years after first visit (about 2 years of inhalation), formula of b46 (ml/min/1.73 m^2)",45.9
same,urinary protein/urinary creatinine ratio,"[2]; approximately three years after first visit (about 2 years of inhalation), normal levels: less than 0.3 g/gCr",0.24 g/gCr
same,HbA1c,[2]; [4],8.0%
same,blood sugar level,[2]; [4],181 mg/dL
same,glyco-albumin,[2]; [4],24.7%
same,renal function (assessment in words),[2]; [4],tendency for improvement
same,serum creatinine,[2]; [4],0.91 mg/dL
same,symptoms of diabetes (assessment in words),[2]; [4],seem to be getting worse
same,urea nitrogen (BUN),[2]; [4],22.1 mg/dL
same,urinary creatinine,[2]; [5],24.1 mg/dL
same,urinary protein determination,[2]; [5],25.3 mg/dL
same,urinary protein/urinary creatinine ratio,[2]; [5],1.05 g/gCr
same,eGFR,"[2]; approximately two and a half years after first visit, eGFR estimated by the formula of b46 (ml/min/1.73 m^2)",52.0
same,urinary protein,"[2]; approximately two and a half years after first visit, inhalation of 6 to 7.5% hydrogen about 2 to 3 hours per day, started about one year after first visit, concomitant medicaments",± (± is A2)
